The values that follow come from patent US20240043395A1, “COMPOUNDS AND COMPOSITIONS AS MODULATORS OF TLR SIGNALING” (Neuropore Therapies, Inc., priority 2020, published 2024).

The target of experiment [1] is T1, human TLR2 (Homo sapiens (Human), UniProt O60603). Kind of experiment: HEK-Blue hTLR2 antagonism assay (SEAP reporter), agonist Pam3CSK4. The format is cell-based. Conditions: HEK-Blue hTLR2 cells; Pam3CSK4 (TLR1/2 agonist) at approx. 3×EC50; 18 h; 8-point dilutions. The protocol: (§1) Synthetic diacylated lipoprotein (Pam2CSK4, TLR2/6 agonist) and synthetic triacylated lipoprotein (Pam3CSK4, TLR1/2 agonist) were obtained from InvivoGen and were dissolved in endotoxin-free water to a concentration 1 mg/mL, vortexed until complete solubilization, and stored in aliquots at −20° C. Prior to addition to cells, an aliquot of the dissolved ligand was vortexed shortly and then was diluted in medium to 25 ng/mL Pam2CSK4 or 1000 ng/mL Pam3CSK4.
T1 sequence (O60603 21-784): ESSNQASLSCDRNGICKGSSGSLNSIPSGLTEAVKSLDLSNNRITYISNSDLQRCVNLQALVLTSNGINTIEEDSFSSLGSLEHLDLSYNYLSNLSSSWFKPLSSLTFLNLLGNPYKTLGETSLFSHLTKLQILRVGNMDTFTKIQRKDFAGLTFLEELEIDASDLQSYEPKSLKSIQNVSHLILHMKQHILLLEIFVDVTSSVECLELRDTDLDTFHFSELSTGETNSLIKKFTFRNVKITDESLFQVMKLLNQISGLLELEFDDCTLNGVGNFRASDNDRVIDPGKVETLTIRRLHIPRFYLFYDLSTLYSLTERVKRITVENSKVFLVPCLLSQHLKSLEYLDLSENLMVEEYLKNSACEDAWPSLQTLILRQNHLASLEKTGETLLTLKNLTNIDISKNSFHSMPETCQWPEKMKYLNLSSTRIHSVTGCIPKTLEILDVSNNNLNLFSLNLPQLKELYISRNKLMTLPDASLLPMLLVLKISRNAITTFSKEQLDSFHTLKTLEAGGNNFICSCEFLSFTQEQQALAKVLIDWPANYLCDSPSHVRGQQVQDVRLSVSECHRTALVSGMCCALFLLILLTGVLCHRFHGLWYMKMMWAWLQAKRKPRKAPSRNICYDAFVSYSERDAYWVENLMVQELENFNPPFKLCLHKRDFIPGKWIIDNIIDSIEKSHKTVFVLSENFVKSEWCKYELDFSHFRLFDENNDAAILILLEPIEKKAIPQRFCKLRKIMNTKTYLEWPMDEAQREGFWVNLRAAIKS
(§2) Test compounds were solubilized fresh to 10-20 mM stocks in DMSO and sonicated for 5-10 minutes in a water bath sonicator. Serial dilutions were prepared in DMSO, and then diluted in medium. The final concentration of DMSO used in the assay was 1%.
(§3) HEK-Blue hTLR2 reporter cells (InvivoGen) are HEK-293 cells stably expressing both the human TLR2 gene and a secreted embryonic alkaline phosphatase (SEAP) reporter construct downstream of NFκB promotor sites. HEK-Blue hTLR2 reporters were cultured according to manufacturer's protocol using Dulbecco's Modified Eagle Medium (DMEM; Gibco) containing 1× GlutaMax (Gibco), 10% heat-inactivated Fetal Bovine Serum (Gibco), Pen-Strep (50 U/mL penicillin, 50 μg/mL streptomycin, Gibco), 100 μg/mL Normocin (InvivoGen), and the selective antibiotic, lx HEK-Blue Selection (InvivoGen). Quanti-Blue reagent (InvivoGen) for detection and quantification of secreted alkaline phosphatase was dissolved in 100 mL of endotoxin-free water, warmed to 37° C. for 30 minutes and then filtered using a 0.2 μm membrane.
(§4) On day 1, 50 μL of each test compound dilution in duplicates or a vehicle control was added to each well of a 96-well plate followed by addition of 150 μL of HEK-Blue hTLR2 cell suspension (1×10^5 cells/well) and incubated at 37° C./5% CO2 for 2 h. Next, 50 μL of an approximate 3×EC50 concentration of each agonist (Pam2CSK4 or Pam3CSK4) was added to the wells containing test compounds or the vehicle control. The plates were then incubated at 37° C./5% CO2 for 18 h. For each assay run, non-treated HEK-Blue hTLR2 cells were treated with serial dilutions of agonists to determine EC50 values for the respective run.
(§5) On day 2, secreted alkaline phosphatase (SEAP) activity was detected in cell culture supernatants. In brief, 20 μL was collected from each well and transferred to a 96-well plate. Next, 200 μL of Quanti-Blue detection reagent was added to each well. Plates were incubated at room temperature for 15 min and SEAP activity was assessed by spectrophotometer OD reading at 655 nm. […] IC50 values were calculated based on 8-point dilutions for each compound.

Experiment [2] concerns the target T1, human TLR2. Kind of experiment: HEK-Blue hTLR2 antagonism assay (SEAP reporter), agonist Pam2CSK4. The format is cell-based. Conditions: HEK-Blue hTLR2 cells; Pam2CSK4 (TLR2/6 agonist) at approx. 3×EC50; 18 h; 8-point dilutions. The protocol:
as §1, §2, §3, §4, §5

Structures are written as SMILES.

`C[C@H]1[C@H](c2ccc(N3CCCC3)cc2)OCCN1C(=O)c1cc(F)c(O)c(C=O)c1` (racemic) [Compound 151, rac-3-fluoro-2-hydroxy-5-((2S,3S)-3-methyl-2-(4-(pyrrolidin-1-yl)phenyl)morpholine-4-carbonyl)benzaldehyde]: the values for the IC50 in experiment [1] and in experiment [2] were 7 µM and 16.9 µM, respectively.
For `O=Cc1cc(C(=O)Nc2nnc(N3CCCCC3)s2)cc(F)c1O` [Compound 1, 3-fluoro-5-formyl-4-hydroxy-N-(5-(piperidin-1-yl)-1,3,4-thiadiazol-2-yl)benzamide], the results for the IC50 in experiment [1] and in experiment [2] were 21.8 µM and 45.8 µM, respectively.
`O=Cc1cc(C(=O)N2CCC(c3ccc(N4CCCC4)nc3)CC2)cc(F)c1O` [Compound 37, 3-fluoro-2-hydroxy-5-(4-(6-(pyrrolidin-1-yl)pyridin-3-yl)piperidine-1-carbonyl)benzaldehyde]: the IC50 in experiment [1] is 4.8 µM; in experiment [2], 6.2 µM.
For `O=Cc1cc(C(=O)c2ccc(N3CCCC3)cc2)cc(F)c1O` [Compound 14, 3-fluoro-2-hydroxy-5-(4-(pyrrolidin-1-yl)benzoyl)benzaldehyde], the IC50 in experiment [1] amounted to 18.7 µM; in experiment [2] it was 18.2 µM.
For `O=Cc1cc(C(=O)Nc2ccc(N3CCCC3)nn2)cc(F)c1O` [Compound 92, 3-fluoro-5-formyl-4-hydroxy-N-(6-(pyrrolidin-1-yl)pyridazin-3-yl)benzamide], the IC50 in experiment [1] is 39 µM; in experiment [2], 59 µM.
Take `O=Cc1cc(C(=O)Nc2cnc(-c3ccnc(N4CCCC4)c3)s2)cc(F)c1O` [Compound 168, 3-fluoro-5-formyl-4-hydroxy-N-(2-(2-(pyrrolidin-1-yl)pyridin-4-yl)thiazol-5-yl)benzamide]: the IC50 worked out at 9.6 µM in experiment [1] and 15.8 µM in experiment [2].
Consider `C[n+]1ccccc1Oc1c(F)cc(-c2nc(-c3ccc(N4CCCC4)cc3)ns2)cc1C=O` [Compound 177, 2-(2-fluoro-6-formyl-4-(3-(4-(pyrrolidin-1-yl)phenyl)-1,2,4-thiadiazol-5-yl)phenoxy)-1-methylpyridinium iodide], for which the IC50 in experiment [1] was 0.6 µM; in experiment [2] it was 1.6 µM.
On to `O=Cc1cc(C(=O)N2CCO[C@H](c3ccc(N4CCCC4)cc3)C2)cc(F)c1O` (single isomer, unassigned) [Compound 149], for which the IC50 amounted to 1.74 µM in experiment [1] and 4.34 µM in experiment [2].
`O=Cc1cc(C(=O)N2CC[C@@H](c3ccc(N4CCCC4)cc3)C2)cc(F)c1O` (single isomer, unassigned) [Compound 157]: the results for the IC50 in experiment [1] and in experiment [2] were 2.2 µM and 3 µM, respectively.
`O=Cc1cc(-c2cnc(-c3ccc(N4CCCC4)nc3)s2)ncc1O` [Compound 129, 5-hydroxy-2-(2-(6-(pyrrolidin-1-yl)pyridin-3-yl)thiazol-5-yl)isonicotinaldehyde]: the IC50 in experiment [1] is 0.4 µM; in experiment [2] it was 0.7 µM.
Take `O=Cc1cc(C(=O)Nc2ncc(-c3ccc(C(F)(F)F)cc3)s2)cc(F)c1O` [Compound 115, 3-fluoro-5-formyl-4-hydroxy-N-(5-(4-(trifluoromethyl)phenyl)thiazol-2-yl)benzamide]: the IC50 is 0.6 µM in experiment [1] and 1 µM in experiment [2].
For the compound `O=Cc1cc(C(=O)N2CCOC(c3ccc(N4CCCC4)cc3)C2)cc(F)c1O` (racemic) [Compound 147, 3-fluoro-2-hydroxy-5-(2-(4-(pyrrolidin-1-yl)phenyl)morpholine-4-carbonyl)benzaldehyde], the IC50 in experiment [1] came to 1.6 µM; in experiment [2], 4.7 µM.
The matching figures for `CN(C)C(=O)Oc1c(F)cc(-c2nc(-c3ccc(N4CCCC4)cc3)ns2)cc1C=O` [Compound 173, 2-fluoro-6-formyl-4-(3-(4-(pyrrolidin-1-yl)phenyl)-1,2,4-thiadiazol-5-yl)phenyl dimethylcarbamate]: 0.5 µM and 0.9 µM.
The like results for `O=Cc1cc(C(=O)N2CCCN(c3cccc(N4CCCC4)c3)CC2)cc(F)c1O` [Compound 98, 3-fluoro-2-hydroxy-5-(4-(3-(pyrrolidin-1-yl)phenyl)-1,4-diazepane-1-carbonyl)benzaldehyde] were, in that order, 18.1 µM and 15.1 µM.
As to `O=Cc1cc(C(=O)Nc2cnc(N3CCCC3)s2)cc(F)c1O` [Compound 8, 3-fluoro-5-formyl-4-hydroxy-N-(2-(pyrrolidin-1-yl)thiazol-5-yl)benzamide], the IC50 in experiment [1] was 12.9 µM; in experiment [2] it was 17.7 µM.
With `O/N=C\c1cc(-c2nc(-c3ccc(N4CCCC4)cc3)ns2)cc(F)c1O` [Compound 171, 3-fluoro-2-hydroxy-5-(3-(4-(pyrrolidin-1-yl)phenyl)-1,2,4-thiadiazol-5-yl)benzaldehyde oxime], the IC50 in experiment [1] came to 1.03 µM; in experiment [2], 2.52 µM.
The like results for `O=Cc1cc(C(=O)Nc2ncc(-c3ccc(N4CCCC4)cc3)s2)cc(F)c1O` [Compound 13, 3-fluoro-5-formyl-4-hydroxy-N-(5-(4-(pyrrolidin-1-yl)phenyl)thiazol-2-yl)benzamide] were, in that order, 1 µM and 1.5 µM.
Regarding `O=Cc1cc(C(=O)N2CCC(c3ccc(N4CCCC4)cc3)CC2)cc(F)c1O` [Compound 34, 3-fluoro-2-hydroxy-5-(4-(4-(pyrrolidin-1-yl)phenyl)piperidine-1-carbonyl)benzaldehyde], the results for the IC50 in experiment [1] and in experiment [2] were 0.4 µM and 0.9 µM, respectively.
For the compound `O=Cc1cc(-c2scnc2-c2ccccc2)cc(F)c1O` [Compound 18, 3-fluoro-2-hydroxy-5-(4-phenylthiazol-5-yl)benzaldehyde], the IC50 in experiment [1] was found to be 20.3 µM; in experiment [2], 22.2 µM.
The matching figures for `O=Cc1cc(C(=O)Nc2ncc(N3CCCCC3)s2)cc(F)c1O` [Compound 3, 3-fluoro-5-formyl-4-hydroxy-N-(5-(piperidin-1-yl)thiazol-2-yl)benzamide]: 1.7 µM and 2.3 µM.
With `O=Cc1cc(C(=O)N2CCOC(c3cccc(N4CCCC4)c3)C2)cc(F)c1O` (racemic) [Compound 150, rac-3-fluoro-2-hydroxy-5-(2-(3-(pyrrolidin-1-yl)phenyl)morpholine-4-carbonyl)benzaldehyde], the IC50 in experiment [1] amounted to 3.1 µM; in experiment [2], 7.5 µM.
`O=Cc1cc(C(=O)N2CCC(c3cccc(N4CCCC4)c3)CC2)cc(F)c1O` [Compound 35, 3-fluoro-2-hydroxy-5-(4-(3-(pyrrolidin-1-yl)phenyl)piperidine-1-carbonyl)benzaldehyde]: the IC50 in experiment [1] is 8 µM; in experiment [2] it was 13.8 µM.
Regarding `NS(=O)(=O)c1ccc(-c2nsc(-c3cc(F)c(O)c(C=O)c3)n2)cc1` [Compound 170, 4-(5-(3-fluoro-5-formyl-4-hydroxyphenyl)-1,2,4-thiadiazol-3-yl)benzenesulfonamide], the IC50 in experiment [1] was 5.36 µM; in experiment [2] it was 17.7 µM.
For the compound `O=Cc1cc(C(=O)NCCc2ccc(N3CCCC3)cc2)cc(F)c1O` [Compound 143, 3-fluoro-5-formyl-4-hydroxy-N-(4-(pyrrolidin-1-yl)phenethyl)benzamide], the IC50 in experiment [1] was found to be 12.3 µM; in experiment [2], 17 µM.
`COCCN1C(=O)Oc2c(F)cc(-c3nc(-c4ccc(N5CCCC5)cc4)ns3)cc2C1O` (centres unmarked) [Compound 179, 8-fluoro-4-hydroxy-3-(2-methoxyethyl)-6-(3-(4-(pyrrolidin-1-yl)phenyl)-1,2,4-thiadiazol-5-yl)-3,4-dihydro-2H-benzo[e][1,3]oxazin-2-one]: the IC50 amounted to 0.2 µM in experiment [1] and 0.8 µM in experiment [2].
